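Interpolation was linear, between the two tested concentrations surrounding the appropriate level; five concentrations were tested over 48 hours in 96-well plates. GI50 marks 50% less growth. Definition used: TGI = concentration required for complete inhibition of growth.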
Assays:
Experiment in all cases: NCI-60 cell line screen, 48 h
UACC-257 melanoma = test system: UACC-257 melanoma
CCRF-CEM leukemia = test system: CCRF-CEM leukemia
SK-MEL-28 melanoma = test system: SK-MEL-28 melanoma
DU-145 prostate = test system: DU-145 prostate
SF-295 CNS = test system: SF-295 CNS
NCI-H522 lung = test system: NCI-H522 lung
MALME-3M melanoma = test system: MALME-3M melanoma
A498 renal = test system: A498 renal
OVCAR-3 ovarian = test system: OVCAR-3 ovarian
RXF 393 renal = test system: RXF 393 renal
KM12 colon = test system: KM12 colon
OVCAR-8 ovarian = test system: OVCAR-8 ovarian
IGROV1 ovarian = test system: IGROV1 ovarian
HT29 colon = test system: HT29 colon
K-562 leukemia = test system: K-562 leukemia
PC-3 prostate = test system: PC-3 prostate
RPMI-8226 leukemia = test system: RPMI-8226 leukemia
SW-620 colon = test system: SW-620 colon
MDA-MB-468 breast = test system: MDA-MB-468 breast
MCF7 breast = test system: MCF7 breast
NCI-H460 lung = test system: NCI-H460 lung
SNB-19 CNS = test system: SNB-19 CNS
HL-60(TB) leukemia = test system: HL-60(TB) leukemia
SNB-75 CNS = test system: SNB-75 CNS
NCI-H23 lung = test system: NCI-H23 lung
ACHN renal = test system: ACHN renal
BT-549 breast = test system: BT-549 breast
HCT-15 colon = test system: HCT-15 colon
SK-OV-3 ovarian = test system: SK-OV-3 ovarian
SF-539 CNS = test system: SF-539 CNS
HS 578T breast = test system: HS 578T breast
LOX IMVI melanoma = test system: LOX IMVI melanoma
T-47D breast = test system: T-47D breast
SN12C renal = test system: SN12C renal
COLO 205 colon = test system: COLO 205 colon
HCC-2998 colon = test system: HCC-2998 colon
TK-10 renal = test system: TK-10 renal
UO-31 renal = test system: UO-31 renal
OVCAR-5 ovarian = test system: OVCAR-5 ovarian
M14 melanoma = test system: M14 melanoma
MDA-MB-435 = test system: MDA-MB-435
U251 CNS = test system: U251 CNS
HOP-92 NSCLC = test system: HOP-92 NSCLC
OVCAR-4 ovarian = test system: OVCAR-4 ovarian
CAKI-1 renal = test system: CAKI-1 renal
EKVX NSCLC = test system: EKVX NSCLC
MDA-MB-231 breast = test system: MDA-MB-231 breast
SR leukemia = test system: SR leukemia
UACC-62 melanoma = test system: UACC-62 melanoma
786-0 renal = test system: 786-0 renal
NCI/ADR-RES ovarian = test system: NCI/ADR-RES ovarian
SK-MEL-2 melanoma = test system: SK-MEL-2 melanoma
SF-268 CNS = test system: SF-268 CNS
HOP-62 NSCLC = test system: HOP-62 NSCLC
MOLT-4 leukemia = test system: MOLT-4 leukemia
NCI-H226 lung = test system: NCI-H226 lung
A549 NSCLC = test system: A549 NSCLC
HCT-116 colon = test system: HCT-116 colon
SK-MEL-5 melanoma = test system: SK-MEL-5 melanoma

SMILES: C/C(=C\CC/C=C(\C)CC/C=C(\C)CC[C@@H](O)C(C)(C)O)CC/C=C(\C)CC[C@@H](O)C(C)(C)O
- GI50 (UACC-257 melanoma): 10.7 µM
- TGI (UACC-257 melanoma): 23.7 µM
- GI50 (CCRF-CEM leukemia): 17.9 µM
- TGI (CCRF-CEM leukemia): 39.7 µM
- GI50 (SK-MEL-28 melanoma): 12.6 µM
- TGI (SK-MEL-28 melanoma): 25.4 µM
- GI50 (DU-145 prostate): 15.5 µM
- TGI (DU-145 prostate): 29 µM
- GI50 (SF-295 CNS): 7.84 µM
- TGI (SF-295 CNS): 20.9 µM
- GI50 (NCI-H522 lung): 11 µM
- TGI (NCI-H522 lung): 25.9 µM
- GI50 (MALME-3M melanoma): 12 µM
- TGI (MALME-3M melanoma): 24.5 µM
- GI50 (A498 renal): 12.6 µM
- TGI (A498 renal): 25.7 µM
- GI50 (OVCAR-3 ovarian): 13.7 µM
- TGI (OVCAR-3 ovarian): 26.7 µM
- GI50 (RXF 393 renal): 5.93 µM
- TGI (RXF 393 renal): 20.1 µM
- GI50 (KM12 colon): 13.9 µM
- TGI (KM12 colon): 27.3 µM
- GI50 (OVCAR-8 ovarian): 15 µM
- TGI (OVCAR-8 ovarian): 34.8 µM
- GI50 (IGROV1 ovarian): 15.4 µM
- TGI (IGROV1 ovarian): 29.2 µM
- GI50 (HT29 colon): 12 µM
- TGI (HT29 colon): 27.4 µM
- GI50 (K-562 leukemia): 5.07 µM
- TGI (K-562 leukemia): > 100 µM
- GI50 (PC-3 prostate): 5.16 µM
- TGI (PC-3 prostate): 20.1 µM
- GI50 (RPMI-8226 leukemia): 3.74 µM
- TGI (RPMI-8226 leukemia): 18.9 µM
- GI50 (SW-620 colon): 14.9 µM
- TGI (SW-620 colon): 29.4 µM
- GI50 (MDA-MB-468 breast): 7.97 µM
- TGI (MDA-MB-468 breast): 21.1 µM
- GI50 (MCF7 breast): 6.7 µM
- TGI (MCF7 breast): 20 µM
- GI50 (NCI-H460 lung): 11.3 µM
- TGI (NCI-H460 lung): 24.5 µM
- GI50 (SNB-19 CNS): 15 µM
- TGI (SNB-19 CNS): 28.5 µM
- GI50 (HL-60(TB) leukemia): 3.1 µM
- TGI (HL-60(TB) leukemia): 11.2 µM
- GI50 (SNB-75 CNS): 12.5 µM
- TGI (SNB-75 CNS): 25 µM
- GI50 (NCI-H23 lung): 10.9 µM
- TGI (NCI-H23 lung): 23.2 µM
- GI50 (ACHN renal): 5.78 µM
- TGI (ACHN renal): 18.3 µM
- GI50 (BT-549 breast): 5.14 µM
- TGI (BT-549 breast): 17.4 µM
- GI50 (HCT-15 colon): 10.9 µM
- TGI (HCT-15 colon): 22.8 µM
- GI50 (SK-OV-3 ovarian): 15.8 µM
- TGI (SK-OV-3 ovarian): 31 µM
- GI50 (SF-539 CNS): 13.1 µM
- TGI (SF-539 CNS): 26.1 µM
- GI50 (HS 578T breast): 10.3 µM
- TGI (HS 578T breast): 26.1 µM
- GI50 (LOX IMVI melanoma): 13.4 µM
- TGI (LOX IMVI melanoma): 26.4 µM
- GI50 (T-47D breast): 7.75 µM
- TGI (T-47D breast): 25 µM
- GI50 (SN12C renal): 12.6 µM
- TGI (SN12C renal): 25.3 µM
- GI50 (COLO 205 colon): 17.8 µM
- TGI (COLO 205 colon): 34.6 µM
- GI50 (HCC-2998 colon): 13.5 µM
- TGI (HCC-2998 colon): 26.4 µM
- GI50 (TK-10 renal): 17.6 µM
- TGI (TK-10 renal): 32.5 µM
- GI50 (UO-31 renal): 7.71 µM
- TGI (UO-31 renal): 20.7 µM
- GI50 (OVCAR-5 ovarian): 14.5 µM
- TGI (OVCAR-5 ovarian): 27.8 µM
- GI50 (M14 melanoma): 10.4 µM
- TGI (M14 melanoma): 23.1 µM
- GI50 (MDA-MB-435): 14.7 µM
- TGI (MDA-MB-435): 28 µM
- GI50 (U251 CNS): 13.4 µM
- TGI (U251 CNS): 38.1 µM
- GI50 (HOP-92 NSCLC): 10.2 µM
- TGI (HOP-92 NSCLC): 23.9 µM
- GI50 (OVCAR-4 ovarian): 11 µM
- TGI (OVCAR-4 ovarian): 23.4 µM
- GI50 (CAKI-1 renal): 12.3 µM
- TGI (CAKI-1 renal): 25.1 µM
- GI50 (EKVX NSCLC): 7.68 µM
- TGI (EKVX NSCLC): 20.5 µM
- GI50 (MDA-MB-231 breast): 13.6 µM
- TGI (MDA-MB-231 breast): 26.5 µM
- GI50 (SR leukemia): 18.5 µM
- TGI (SR leukemia): 67.8 µM
- GI50 (UACC-62 melanoma): 9.71 µM
- TGI (UACC-62 melanoma): 21.6 µM
- GI50 (786-0 renal): 10.8 µM
- TGI (786-0 renal): 24.1 µM
- GI50 (NCI/ADR-RES ovarian): 11.1 µM
- TGI (NCI/ADR-RES ovarian): 23.6 µM
- GI50 (SK-MEL-2 melanoma): 14.4 µM
- TGI (SK-MEL-2 melanoma): 30 µM
- GI50 (SF-268 CNS): 13.6 µM
- TGI (SF-268 CNS): 28.3 µM
- GI50 (HOP-62 NSCLC): 17 µM
- TGI (HOP-62 NSCLC): 34.6 µM
- GI50 (MOLT-4 leukemia): 14.4 µM
- TGI (MOLT-4 leukemia): 44.6 µM
- GI50 (NCI-H226 lung): 12.6 µM
- TGI (NCI-H226 lung): 27.3 µM
- GI50 (A549 NSCLC): 10 µM
- TGI (A549 NSCLC): 30.2 µM
- GI50 (HCT-116 colon): 6.39 µM
- TGI (HCT-116 colon): 21.3 µM
- GI50 (SK-MEL-5 melanoma): 5.06 µM
- TGI (SK-MEL-5 melanoma): 17.4 µM
